Our source for the T/C values is PubChem BioAssay AID330 (DTP/NCI, 2004).

Each structure is given as a SMILES string. Values joined by “and” are separate entries in the source; they are usually repeats but may differ in a detail not shown here. Identical values can stand only once. Inconclusive results and toxic doses are left out.

In the experiment the test system is P388 leukemia ip, CD2F1 mice, survival T/C. The experiment can be described thus: NCI In Vivo Anticancer Drug Screen. Data for tumor model P388 Leukemia (intraperitoneal) in CD2F1 (CDF1) mice. The conditions noted are these: higher = longer survival. Put shortly: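 Mice carrying the transplanted tumor received test compound or vehicle. Survival was recorded in each group, and the value is the treated-group measurement divided by that of the vehicle-treated control group.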

[1] abbreviates: endpoint: median survival time, dose: 12.5 mg/kg/injection, schedule: Q01DX009 (ip), vehicle: distilled water + Tween-80.
Setting [2] is: endpoint: median survival time, dose: 25.0 mg/kg/injection, schedule: Q01DX009 (ip), vehicle: distilled water + Tween-80.
Setting [3] is: endpoint: median survival time, dose: 50.0 mg/kg/injection, schedule: Q01DX005 (ip), vehicle: Klucel (hydroxypropylcellulose) (HPC).
Where [4] appears, read: endpoint: median survival time, dose: 100.0 mg/kg/injection, schedule: Q01DX005 (ip), vehicle: Klucel (hydroxypropylcellulose) (HPC).
The mark [5] stands for this setting: endpoint: median survival time, dose: 200.0 mg/kg/injection, schedule: Q01DX005 (ip), vehicle: Klucel (hydroxypropylcellulose) (HPC).
Setting [6] is: endpoint: median survival time, dose: 6.25 mg/kg/injection, schedule: Q01DX009 (ip), vehicle: saline.
[7] abbreviates: endpoint: median survival time, dose: 12.5 mg/kg/injection, schedule: Q01DX009 (ip), vehicle: saline.
[8] abbreviates: endpoint: median survival time, dose: 50.0 mg/kg/injection, schedule: Q01DX009 (ip), vehicle: saline with Tween-80.
Setting [9] is: endpoint: median survival time, dose: 100.0 mg/kg/injection, schedule: Q01DX009 (ip), vehicle: saline with Tween-80.
[10] abbreviates: endpoint: median survival time, dose: 200.0 mg/kg/injection, schedule: Q01DX009 (ip), vehicle: saline with Tween-80.
Where [11] appears, read: endpoint: median survival time, dose: 50.0 mg/kg/injection, schedule: Q01DX009 (ip), vehicle: saline.
The mark [12] stands for this setting: endpoint: median survival time, dose: 100.0 mg/kg/injection, schedule: Q01DX009 (ip), vehicle: saline.
Setting [13] is: endpoint: median survival time, dose: 100.0 mg/kg/injection, schedule: Q04DX003 (ip), vehicle: saline.

With `N#Cc1ccc(NN=NCCS(=O)CCCl)cc1` (stereo not given), the T/C is 100 % of control (endpoint: median survival time, dose: 6.25 mg/kg/injection, schedule: Q01DX009 (ip), vehicle: distilled water + Tween-80); 111 % of control under setting [1]; 112 % of control under setting [2].
In the case of `CC[As](CC)SC1CCC2(C)C(=CCC3C4CCC(=O)C4(C)CCC32)C1` (stereo not given), the T/C runs as follows: under setting [1], 105 % of control; under setting [2], 100 % of control and 117 % of control; (endpoint: median survival time, dose: 50.0 mg/kg/injection, schedule: Q01DX009 (ip), vehicle: distilled water + Tween-80) 120 % of control; (endpoint: median survival time, dose: 100.0 mg/kg/injection, schedule: Q01DX009 (ip), vehicle: distilled water + Tween-80) 156 % of control.
As for `CS(=O)(=O)OCCCN(CCCOS(C)(=O)=O)CCCN1CCOCC1`, the T/C runs as follows: (endpoint: mean survival time, dose: 20.0 mg/kg/injection, schedule: Q01DX009 (ip), vehicle: saline) 247 % of control; (endpoint: mean survival time, dose: 40.0 mg/kg/injection, schedule: Q01DX009 (ip), vehicle: saline) 238 % of control; (endpoint: mean survival time, dose: 60.0 mg/kg/injection, schedule: Q01DX009 (ip), vehicle: saline) 263 % of control; (endpoint: median survival time, dose: 20.0 mg/kg/injection, schedule: Q01DX009 (ip), vehicle: saline) 227 % of control; (endpoint: median survival time, dose: 40.0 mg/kg/injection, schedule: Q01DX009 (ip), vehicle: saline) 222 % of control; (endpoint: median survival time, dose: 60.0 mg/kg/injection, schedule: Q01DX009 (ip), vehicle: saline) 254 % of control.
With `CN1CCC(O)(c2ncc(Br)c3ccccc23)CC1`, the T/C is 97 % of control (endpoint: median survival time, dose: 60.0 mg/kg/injection, schedule: Q01DX005 (ip), vehicle: saline + alcohol) and 93 % of control (endpoint: median survival time, dose: 120.0 mg/kg/injection, schedule: Q01DX005 (ip), vehicle: saline + alcohol).
For `O=C1CSC(c2cccs2)N1c1nccs1` (stereo not given), the T/C is, setting by setting: under setting [3], 102 % of control; under setting [4], 106 % of control; under setting [5], 100 % of control.
With `CSc1nc(C)nc2sc(CO)nc12`, the T/C reads like this: (endpoint: median survival time, dose: 100.0 mg/kg/injection, schedule: Q04DX002 (ip), vehicle: suspension in saline) 97 % of control; (endpoint: median survival time, dose: 200.0 mg/kg/injection, schedule: Q04DX002 (ip), vehicle: suspension in saline) 97 % of control; (endpoint: median survival time, dose: 400.0 mg/kg/injection, schedule: Q04DX002 (ip), vehicle: suspension in saline) 96 % of control.
As to `c1ccc(Nc2ccncc2)cc1`, the T/C was 95 % of control (endpoint: median survival time, dose: 1.56 mg/kg/injection, schedule: Q01DX009 (ip), vehicle: saline); 95 % of control (endpoint: median survival time, dose: 3.12 mg/kg/injection, schedule: Q01DX009 (ip), vehicle: saline); 100 % of control under setting [6]; 100 % of control under setting [7]; 100 % of control (endpoint: median survival time, dose: 25.0 mg/kg/injection, schedule: Q04DX003 (ip), vehicle: saline sonified); 90 % of control (endpoint: median survival time, dose: 50.0 mg/kg/injection, schedule: Q04DX003 (ip), vehicle: saline sonified). Also, where the note is “endpoint: median survival time, dose: 100.0 mg/kg/injection, schedule: Q04DX003 (ip), vehicle: saline sonified”, the T/C was 100 % of control.
Take `CS(=O)(=O)CCN(N=O)C(=N)N[N+](=O)[O-]`: the T/C (endpoint: median survival time, dose: 12.5 mg/kg/injection, schedule: Q04DX003 (ip), vehicle: saline with Tween-80) is 118 % of control; the T/C (endpoint: median survival time, dose: 25.0 mg/kg/injection, schedule: Q04DX003 (ip), vehicle: saline with Tween-80) is 118 % of control; the T/C under setting [8] was 159 % of control; the T/C (endpoint: median survival time, dose: 50.0 mg/kg/injection, schedule: Q04DX003 (ip), vehicle: saline with Tween-80) is 118 % of control; the T/C (endpoint: median survival time, dose: 66.0 mg/kg/injection, schedule: Q04DX003 (ip), vehicle: saline with Tween-80) is 154 % of control; the T/C (endpoint: median survival time, dose: 150.0 mg/kg/injection, schedule: Q04DX003 (ip), vehicle: saline with Tween-80) was 154 % of control.
For `COc1ccccc1N=C(C)C1C(=O)c2ccccc2C1=O`, the T/C is 104 % of control under setting [3], 104 % of control under setting [4] and 100 % of control under setting [5].
`Cc1cc(C(=O)NCCc2ccc(S(=O)(=O)NC(=O)NCC3CC4CCC3C4)cc2)no1` (stereo not given): the T/C is, setting by setting: (endpoint: median survival time, dose: 50.0 mg/kg/injection, schedule: Q01DX001 (ip), vehicle: Klucel (hydroxypropylcellulose) (HPC)) 106 % of control; (endpoint: median survival time, dose: 100.0 mg/kg/injection, schedule: Q01DX001 (ip), vehicle: Klucel (hydroxypropylcellulose) (HPC)) 97 % of control; (endpoint: median survival time, dose: 200.0 mg/kg/injection, schedule: Q01DX001 (ip), vehicle: Klucel (hydroxypropylcellulose) (HPC)) 94 % of control.
As to `CCCc1c(C)nc2scc(-c3ccc(Cl)cc3)n2c1=O`, the T/C under setting [8] is 96 % of control, the T/C under setting [9] was 98 % of control and the T/C under setting [10] was 96 % of control.
For the compound `O=c1[nH]c(=O)c2ncn(C3OC(CO)C(O)C3O)c2[nH]1.O=c1[nH]c(=O)c2ncn(C3OC(CO)C(O)C3O)c2[nH]1.[NH2-].[NH2-].[Pt+2]` (stereo not given), the T/C is 105 % of control under setting [6]; 110 % of control and 102 % of control under setting [7]; 92 % of control and 107 % of control (endpoint: median survival time, dose: 25.0 mg/kg/injection, schedule: Q01DX009 (ip), vehicle: saline); 100 % of control and 107 % of control under setting [11]; 105 % of control (endpoint: median survival time, dose: 50.0 mg/kg/injection, schedule: Q04DX003 (ip), vehicle: suspension in saline); 96 % of control and 116 % of control under setting [12]. Moreover, the T/C is 110 % of control (endpoint: median survival time, dose: 100.0 mg/kg/injection, schedule: Q04DX003 (ip), vehicle: suspension in saline); 120 % of control (endpoint: median survival time, dose: 200.0 mg/kg/injection, schedule: Q04DX003 (ip), vehicle: suspension in saline); 174 % of control (endpoint: median survival time, dose: 400.0 mg/kg/injection, schedule: Q04DX003 (ip), vehicle: water).
Turning to `CCN(CC)CCOCc1cccc2c(=O)cc(-c3ccccc3)oc12`, the T/C under setting [11] is 105 % of control and the T/C under setting [12] is 101 % of control.
As to `CCOC(=O)C(=CNc1cc(C)ccn1)C(=O)OCC`, the T/C is 104 % of control under setting [8]; 95 % of control under setting [9]; 95 % of control under setting [13]; 100 % of control under setting [10]; 100 % of control (endpoint: median survival time, dose: 200.0 mg/kg/injection, schedule: Q04DX003 (ip), vehicle: saline).
On to `CCSSC1(C)C(=O)N2CCCC2C(=O)N1C` (stereo not given), for which the T/C is, setting by setting: (endpoint: median survival time, dose: 25.0 mg/kg/injection, schedule: Q04DX003 (ip), vehicle: saline) 109 % of control; (endpoint: median survival time, dose: 50.0 mg/kg/injection, schedule: Q04DX003 (ip), vehicle: saline) 103 % of control; under setting [13], 104 % of control.
Take `Nc1ccn([C@@H](C=O)C[C@@H](C=O)CO)c(=O)n1`: the T/C (endpoint: median survival time, dose: 25.0 mg/kg/injection, schedule: Q01DX005 (ip), vehicle: saline) was 112 % of control; the T/C (endpoint: median survival time, dose: 200.0 mg/kg/injection, schedule: Q01DX005 (ip), vehicle: saline) is 150 % of control; the T/C (endpoint: median survival time, dose: 400.0 mg/kg/injection, schedule: Q01DX005 (ip), vehicle: saline) was 166 % of control.
As to `CSC(=S)NN=C(c1ccccn1)c1ccccn1`, the T/C is 96 % of control (endpoint: median survival time, dose: 6.25 mg/kg/injection, schedule: Q01DX009 (ip), vehicle: saline with Tween-80); 99 % of control (endpoint: median survival time, dose: 12.5 mg/kg/injection, schedule: Q01DX009 (ip), vehicle: saline with Tween-80); 92 % of control (endpoint: median survival time, dose: 25.0 mg/kg/injection, schedule: Q01DX009 (ip), vehicle: saline with Tween-80); 91 % of control under setting [9]; 88 % of control under setting [10].
Take `O=c1[nH]nnc2nc(N3CCOCC3)sc12`: the T/C runs as follows: (endpoint: median survival time, dose: 100.0 mg/kg/injection, schedule: Q01DX001 (ip), vehicle: saline with Tween-80) 103 % of control and 95 % of control; (endpoint: median survival time, dose: 200.0 mg/kg/injection, schedule: Q01DX001 (ip), vehicle: saline with Tween-80) 102 % of control and 104 % of control; (endpoint: median survival time, dose: 300.0 mg/kg/injection, schedule: Q01DX001 (ip), vehicle: saline with Tween-80) 100 % of control.
For `Cc1oc2ccccc2c(=O)c1CN1CCN(c2ccccn2)CC1`, the T/C was 101 % of control (endpoint: median survival time, dose: 60.0 mg/kg/injection, schedule: Q01DX005 (ip), vehicle: saline) and 101 % of control (endpoint: median survival time, dose: 120.0 mg/kg/injection, schedule: Q01DX005 (ip), vehicle: saline).
